Experimental data from patent publication US20060269924A1, “Modulation of telomere-initiated cell signaling” (TRUSTEES OF BOSTON UNIVERSITY, priority 2003, published 2006).
{P} = phosphate

Legend:
[1] = test system: human fibrosarcoma HT-1080 cells; assay: SA-β-Gal staining, HT-1080 cells; type: cell-based
Method: FIG. 13a: Exposure to T-oligo increases SA-β-Gal activity. HT-1080 cells were treated for 4 days with diluent alone or 40 μM T-oligo or the complementary control oligo, then stained and assayed for SA-β-Gal activity. FIG. 13b: Quantitative analysis of SA-β-Gal positive cells. Cells expressing SA-β-Gal activity were counted and presented as percentage of total cells in the cultures. Averages and standard deviations were calculated from 3 representative fields from each of 3 independent experiments. FIG. 13c: Effect of T-oligo on cell proliferation. Cells were treated for 4 days as in FIG. 12 and assayed for DNA synthesis by BrdU incorporation. FIG. 13d: Quantitative analysis of BrdU incorporation. Dark black nuclei indicate BrdU incorporated into nuclear DNA. BrdU positive cells were calculated and presented as percentage of total cells in the cultures. Averages and standard deviations were calculated from 3 representative fields from each of 3 independent experiments. FIG. 13e: Effect of T-oligo on pRb phosphorylation. Cells were treated as in FIG. 13a and were then collected for protein analysis by western blot using 30 μg total protein and probed for pRb-ser780*, ser795* and ser807/811* (pRb phosphorylated at serine 780, serine 795 and serine 807/811 respectively). Lanes D, T and C contain protein samples from cells treated with diluent, T-oligo and complementary oligo respectively. β-actin was used as a loading control.
Parallel cultures were treated as described in FIG. 13a. Cells were then washed once with PBS and refed with complete medium without additional treatment for 24 hours or 48 hours. FIG. 14a: SA-β-Gal activity. Cells were stained for SA-β-Gal activity. […]
TRF2^DN has been reported to induce a senescent phenotype in human fibrosarcoma HT-1080 cells. To determine whether exposure to the telomere 3′ overhang DNA (T-oligo) also induces senescence in these cells, HT-1080 cells (American Type Culture Collection; Manassas, Va.) were treated with either diluent alone, T-oligo or the complementary oligo as a control, for 4 days and then assessed for SA-β-Gal activity. […]

R2F fibroblasts = assay: SA-β-Gal staining, R2F fibroblasts; type: cell-based, human; conditions: 40 μM, 1 week
Method: (§1) FIG. 12a: Immunoblot analysis of p53DD and cdk4^R24C expression. Cells were collected for protein analysis by western blot using 30 μg total protein and probed for total p53 and cdk4. Lanes 1, 2, 3 and 4 contain protein samples from R2F, R2F (p53DD), R2F (cdk4^R24C) and R2F (p53DD/cdk4^R24C) fibroblasts, respective. β-actin was used as a loading control. FIG. 12b: Contribution of p53 and pRb pathways to T-oligo-induced SA-β-Gal activity. R2F fibroblasts and derived transductants were treated with diluent or 40 μM T-oligo for one week and then assayed for SA-β-Gal activity. FIG. 12c: Quantitative analysis of SA-β-Gal positive cells. Cells expressing SA-β-Gal activity were counted and presented as percentage of total cells in the cultures. Averages and standard deviations were calculated from 3 representative fields from each of 3 independent experiments.
Cells were treated once with diluent alone, 40 μM T-oligo or 40 μM complementary oligo for 1 week without re-feeding. Cells were then fixed for 3-5 minutes in 2% formaldehyde/0.2% glutaraldehyde and incubated at 37° C. […]
(§2) Cells were treated with either diluent or 40 μM T-oligo for 1 week and then assessed for SA-β-Gal activity. […]

[2] = test system: keratinocyte cell line (SSC12F); assay: S-phase arrest by FACS in keratinocyte cell line; type: cell-based; conditions: 48 hours, 11mer-1 alone (10 μM per FIG. 3B)
Method: FIGS. 3A-3G are profiles showing the results of fluorescence activated cell sorting, for the following additions to the cells: FIG. 3A, diluent; FIG. 3B, 10 μM 11mer-1; FIG. 3C, 10 μM 11mer-1 and 1 μM 11mer-1-S; FIG. 3D, 10 μM 11mer-1 and 5 μM 11mer-1-S; FIG. 3E, 10 μM 11mer-1 and 10 μM 11mer-1-S; FIG. 3F, 20 μM 11mer-1-S; FIG. 3G, 10μM 11mer-1-S.
Forty-three percent of the cells were in the S phase, compared to 26% of the control, diluent-treated cells.

[3] = test system: cdk4^R24C R2F fibroblasts; assay: SA-β-Gal staining, cdk4^R24C R2F fibroblasts; type: cell-based, human; conditions: 40 μM, 1 week
Method: as §1
R2F newborn dermal fibroblasts and derived p53DD, […] and p53DD/cdk4^R24C transductants (a generous gift from Dr. James G. Rheinwald of Harvard Medical School) lack a functional p53 pathway, pRb pathway, and both pathways respectively.
Cells were treated once with diluent alone, 40 μM T-oligo or 40 μM complementary oligo for 1 week without re-feeding. […]
as §2

Question: With “pGTTAGGGTTAG (DNA, 5' {P}, backbone not given here; listed as Homo sapiens) [Oligonucleotide 11mer-1]” as the substance, how does the “SA-β-Gal activity after removal of oligo” value ([1]; HT-1080, 4 days 40 μM, then 1 and 2 days fresh medium without oligonucleotide) read?
Answer: increase in SA-β-Gal activity

Question: What about the SA-β-Gal positive cells ([1]; HT-1080 cells, 40 μM, 4 days) of the same substance?
Answer: 80±7%

Question: And the SA-β-Gal positive cells (R2F fibroblasts)?
Answer: 65±7%

Question: And the “cells in the S phase” value [2]?
Answer: Forty-three

Question: And the SA-β-Gal positive cells [3]?
Answer: 60±5%
